US20020092037A1, “Use of membrane supports in plant tissue culture processes” (priority 2000, published 2002)

System: P. taeda embryogenic cell lines
Test: Growth of non-transgenic, transgenic and mixed pine cell cultures on GENETICIN selection medium with support treatments, P. taeda
Type: cell-based, Pinus taeda
Conditions: 15 mg/L in DCR selection medium
Protocol: Stably transformed pine tissue had been generated using a particle bombardment method and selected for the presence of an inserted antibiotic resistance gene, nptII, on DCR2 gelled medium (Table 5), in this example containing 15 mg/L GENETICIN®, hereinafter referred to as DCR selection medium. Additionally, the presence of an inserted gus gene, encoding a β-glucuronidase enzyme in tissue culture cells, had been detected by deep blue staining of cells from each of the transgenic lines upon exposure to a colorigenic glucuronidase enzyme substrate (commercially available from Inalco, Inc.), according to techniques well known to those skilled in the art of plant transformation, and the presence of both transgenes had been verified by use of the polymerase chain reaction (PCR) using techniques well known to those skilled in the art of molecular biology. The transgenic pine lines containing and expressing both transgenes had then been cryopreserved as described in Example 4 above. […]
Cells, or the supports bearing the cells, were transferred onto fresh selection medium at biweekly intervals, and fresh weight of cells for each plate was recorded at each biweekly transfer, for a total of eight weeks (Table 19). […]

CN[C@@H]1[C@@H](O)[C@@H](O[C@@H]2[C@@H](O)[C@H](O[C@H]3O[C@H]([C@@H](C)O)[C@@H](O)[C@H](O)[C@H]3N)[C@@H](N)C[C@H]2N)OC[C@]1(C)O [GENETICIN®]
selection of non-transformed versus transformed pine tissue: sufficient to kill the non-transformed tissue while allowing growth of the transformed tissue
